Results on 14 compounds are retold here after article PMC12434667 (Journal of Medicinal Chemistry, 2025).

Chain of CDK2/CRBN (Q16531 whole entry): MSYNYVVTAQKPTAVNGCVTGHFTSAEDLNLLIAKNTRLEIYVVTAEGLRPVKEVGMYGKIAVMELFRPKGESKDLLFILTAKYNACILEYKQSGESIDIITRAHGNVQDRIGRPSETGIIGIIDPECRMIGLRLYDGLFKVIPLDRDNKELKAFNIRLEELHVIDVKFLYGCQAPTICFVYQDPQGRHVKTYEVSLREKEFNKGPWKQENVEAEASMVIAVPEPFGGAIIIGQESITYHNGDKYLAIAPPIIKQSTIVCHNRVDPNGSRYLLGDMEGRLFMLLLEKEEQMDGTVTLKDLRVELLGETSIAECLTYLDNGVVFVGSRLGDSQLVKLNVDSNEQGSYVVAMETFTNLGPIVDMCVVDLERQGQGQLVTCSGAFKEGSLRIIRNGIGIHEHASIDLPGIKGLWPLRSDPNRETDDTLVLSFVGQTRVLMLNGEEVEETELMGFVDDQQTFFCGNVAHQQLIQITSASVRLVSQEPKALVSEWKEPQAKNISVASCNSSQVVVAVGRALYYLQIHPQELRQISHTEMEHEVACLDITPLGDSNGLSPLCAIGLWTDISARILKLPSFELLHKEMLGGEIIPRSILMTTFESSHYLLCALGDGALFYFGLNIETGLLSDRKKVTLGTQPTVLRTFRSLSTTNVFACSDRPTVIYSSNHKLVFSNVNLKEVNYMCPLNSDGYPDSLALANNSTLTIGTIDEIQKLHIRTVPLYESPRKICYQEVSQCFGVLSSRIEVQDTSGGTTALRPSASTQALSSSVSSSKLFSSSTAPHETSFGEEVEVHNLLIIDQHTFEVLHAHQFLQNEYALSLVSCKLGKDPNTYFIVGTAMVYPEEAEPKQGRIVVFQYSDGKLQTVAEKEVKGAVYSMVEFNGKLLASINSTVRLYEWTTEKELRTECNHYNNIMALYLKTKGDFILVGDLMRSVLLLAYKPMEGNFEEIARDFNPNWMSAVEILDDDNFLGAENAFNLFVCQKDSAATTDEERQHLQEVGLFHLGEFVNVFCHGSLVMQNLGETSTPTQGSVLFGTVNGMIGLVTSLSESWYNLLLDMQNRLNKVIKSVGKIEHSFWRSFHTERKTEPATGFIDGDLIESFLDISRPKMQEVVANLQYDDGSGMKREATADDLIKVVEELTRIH
Chain of CDK2/CRBN (Q96SW2 40-442): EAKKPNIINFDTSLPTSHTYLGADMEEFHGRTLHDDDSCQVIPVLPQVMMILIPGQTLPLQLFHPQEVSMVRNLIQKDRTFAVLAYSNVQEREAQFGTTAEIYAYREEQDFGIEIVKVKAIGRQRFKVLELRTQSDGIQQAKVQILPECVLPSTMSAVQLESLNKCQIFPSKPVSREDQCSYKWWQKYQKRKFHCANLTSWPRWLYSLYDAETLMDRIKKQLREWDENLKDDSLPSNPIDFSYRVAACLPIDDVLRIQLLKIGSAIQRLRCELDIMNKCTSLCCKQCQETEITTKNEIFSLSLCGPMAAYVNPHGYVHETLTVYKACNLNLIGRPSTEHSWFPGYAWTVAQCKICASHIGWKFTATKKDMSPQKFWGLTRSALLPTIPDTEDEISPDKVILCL
Chain of CYP3A4 (P08684 whole entry): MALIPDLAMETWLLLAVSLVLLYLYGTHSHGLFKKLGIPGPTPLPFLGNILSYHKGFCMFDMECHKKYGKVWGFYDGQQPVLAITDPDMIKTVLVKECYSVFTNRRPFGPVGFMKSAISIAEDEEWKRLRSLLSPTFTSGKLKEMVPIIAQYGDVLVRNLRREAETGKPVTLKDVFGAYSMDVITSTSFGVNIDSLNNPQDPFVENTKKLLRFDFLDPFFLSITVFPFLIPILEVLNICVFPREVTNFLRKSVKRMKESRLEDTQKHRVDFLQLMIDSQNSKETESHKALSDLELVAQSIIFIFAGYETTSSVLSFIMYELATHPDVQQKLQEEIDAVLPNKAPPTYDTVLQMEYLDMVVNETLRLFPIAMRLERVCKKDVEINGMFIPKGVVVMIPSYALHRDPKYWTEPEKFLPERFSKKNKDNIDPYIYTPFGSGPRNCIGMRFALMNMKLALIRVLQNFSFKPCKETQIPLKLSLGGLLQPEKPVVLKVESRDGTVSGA

One series has as its system HCC1569 tumor xenograft. The series can be described thus: HCC1569 tumor xenograft efficacy. It counts as in vivo, mouse. Conditions: 150 mg/kg PO BID, 28 days.
Take `COCc1cc(C(=O)Nc2cc([C@H]3CC[C@@H](OC(=O)NC(C)C)C3)[nH]n2)n(C)n1` [PF-07104091, reference compound]: the antitumor activity result was “stable disease (30 to −30% is stable disease (0% = Tumor Stasis))”.

Still in this series, the particulars now being: 150 mg/kg PO BID, 28 days, HCC1569 xenograft mice.
Turning to `COCc1cc(C(=O)Nc2cc([C@H]3CC[C@@H](OC(=O)NC(C)C)C3)[nH]n2)n(C)n1` [PF-07104091, reference compound], the “day 28 %dTV (mean ± SEM)” value is 4 ± 15%.

The next series concerns panel of nonmutant kinases. In words: Kinomescan panel. Conditions: 1 uM; nonmutant kinases with % Ctrl <10 / nonmutant kinases tested. It counts as binding.
For the compound `Cc1cc(S(=O)(=O)N[C@H]2CC[C@H](CN3CCN(c4ccc(C5CCC(=O)NC5=O)cc4F)CC3)CC2)ccc1Nc1ncc(C(F)(F)F)c(N2CCC[C@](C)(O)C2)n1` (stereo partly shown) [Compound 29], the “kinomescan S(10) score” value is 0.007.

The next series addresses CYP3A4 (Homo sapiens, UniProt P08684). The series can be described thus: Cyp3A4 TDI. It counts as in vitro ADME.
Conditions: not given
As for `Cc1cc(S(=O)(=O)N[C@H]2CC[C@H](CN3CCN(c4ccc(C5CCC(=O)NC5=O)c(Cl)c4)CC3)CC2)ccc1Nc1ncc(C(F)(F)F)c(N2CCC[C@](C)(O)C2)n1` (stereo partly shown) [Compound 24], the “CYP3A4 inhibition (in words)” value is “time- and NADPH-dependent inhibition”.

The next series has as its target CDK2/CRBN (Homo sapiens, UniProt P24941+Q96SW2). The series can be described thus: AlphaLisa ternary complex formation assay. It is filed as binding. The settings on record: compound 28 used as 100% control. Background: Alpha assays give light when donor and acceptor beads are brought close together.
For the compound `Cc1cc(S(=O)(=O)N[C@H]2CC[C@H](N3CCN(CC4CCN(c5cccc6c5n(C)c(=O)n6C5CCC(=O)NC5=O)CC4)CC3)CC2)ccc1Nc1ncc(C(F)(F)F)c(N2CCC[C@](C)(O)C2)n1` (stereo partly shown) [Compound 14], the “CDK2/CRBN/degrader ternary complex normalized AUC” value is recorded as 10.

With `Cc1cc(S(=O)(=O)NC2CC(N3CCN(CC4CCN(c5cccc6c5n(C)c(=O)n6C5CCC(=O)NC5=O)CC4)CC3)C2)ccc1Nc1ncc(C(F)(F)F)c(N2CCC[C@](C)(O)C2)n1` (stereo partly shown) [Compound 15], the “CDK2/CRBN/degrader ternary complex normalized AUC” value is on record as 9.5.

On to `Cc1cc(S(=O)(=O)N[C@]2(C)C[C@@H](N3CCN(CC4CCN(c5ccc6c(c5F)n(C)c(=O)n6C5CCC(=O)NC5=O)CC4)CC3)C2)ccc1Nc1ncc(C(F)(F)F)c(N2CCC[C@](C)(O)C2)n1` (stereo partly shown) [Compound 17], for which the “CDK2/CRBN/degrader ternary complex normalized AUC” value is reported as 13.

For the compound `Cc1cc(S(=O)(=O)NC2CC(N3CCN(CC4CCN(c5cccc6c5n(C)c(=O)n6C5CCC(=O)NC5=O)CC4)C4(CC4)C3)C2)ccc1Nc1ncc(C(F)(F)F)c(N2CCC[C@](C)(O)C2)n1` (stereo partly shown) [Compound 19], the “CDK2/CRBN/degrader ternary complex normalized AUC” value is given as 27.

As for `Cc1cc(S(=O)(=O)NC2CC(N3CC[C@@H](OC4CN(c5cccc6c5n(C)c(=O)n6C5CCC(=O)NC5=O)C4)[C@H](F)C3)C2)ccc1Nc1ncc(C(F)(F)F)c(N2CCC[C@](C)(O)C2)n1` (stereo partly shown) [Compound 20], the “CDK2/CRBN/degrader ternary complex normalized AUC” value was 7.9.

Regarding `Cc1cc(S(=O)(=O)NC2CC(N3CCN(CC4CCN(c5ccc(NC6CCC(=O)NC6=O)cc5C)CC4)CC3)C2)ccc1Nc1ncc(C(F)(F)F)c(N2CCC[C@](C)(O)C2)n1` (stereo partly shown) [Compound 21], the “CDK2/CRBN/degrader ternary complex normalized AUC” value was 4.0.

Consider `Cc1cc(S(=O)(=O)N[C@H]2C[C@H](CN3CC(c4ccc(C5CCC(=O)NC5=O)c(Cl)c4)C3)C2)ccc1Nc1ncc(C(F)(F)F)c(N2CCC[C@](C)(O)C2)n1` (stereo partly shown) [Compound 22], for which the “CDK2/CRBN/degrader ternary complex normalized AUC” value is 0.

Turning to `Cc1cc(S(=O)(=O)N[C@H]2C[C@H](CN3CCN(c4ccc(C5CCC(=O)NC5=O)c(Cl)c4)CC3)C2)ccc1Nc1ncc(C(F)(F)F)c(N2CCC[C@](C)(O)C2)n1` (stereo partly shown) [Compound 23], the “CDK2/CRBN/degrader ternary complex normalized AUC” value is listed as 4.8.

On to `Cc1cc(S(=O)(=O)N[C@H]2CC[C@H](CN3CCN(c4ccc(C5CCC(=O)NC5=O)c(Cl)c4)CC3)CC2)ccc1Nc1ncc(C(F)(F)F)c(N2CCC[C@](C)(O)C2)n1` (stereo partly shown) [Compound 24], for which the “CDK2/CRBN/degrader ternary complex normalized AUC” value came out at 92.

In the case of `Cc1cc(S(=O)(=O)NC2CCC(CN3CCN(c4cccc(C5CCC(=O)NC5=O)c4)CC3)CC2)ccc1Nc1ncc(C(F)(F)F)c(N2CCC[C@](C)(O)C2)n1` (stereo partly shown) [Compound 26], the “CDK2/CRBN/degrader ternary complex normalized AUC” value was 0.

In the case of `Cc1cc(S(=O)(=O)N[C@H]2CC[C@H](CN3CCN(c4ccc(NC5CCC(=O)NC5=O)cc4F)CC3)CC2)ccc1Nc1ncc(C(F)(F)F)c(N2CCC[C@](C)(O)C2)n1` (stereo partly shown) [Compound 27], the “CDK2/CRBN/degrader ternary complex normalized AUC” value was 35.

With `Cc1cc(S(=O)(=O)N[C@H]2CC[C@H](CN3CCN(c4cccc(NC5CCC(=O)NC5=O)c4)CC3)CC2)ccc1Nc1ncc(C(F)(F)F)c(N2CCC[C@](C)(O)C2)n1` (stereo partly shown) [Compound 28], the “CDK2/CRBN/degrader ternary complex normalized AUC” value was 100.
